Results reported in patent US7135556B2, “NPC1L1 (NPC3) and methods of use thereof” (Schering Corporation, priority 2002, dated 2006).

Key:
SR-B1 = biological target: T1, SR-B1 (Mus musculus, UniProt Q61009); assay: Cholesterol uptake assay (Example 4), [3H]-cholesterol, CHO cells expressing SR-B1; type: cell-based; settings: 10 μM ezetimibe
T1 construct: expressed in transfected cells; host or cells: CHO cells
T1 sequence (Q61009 1-509): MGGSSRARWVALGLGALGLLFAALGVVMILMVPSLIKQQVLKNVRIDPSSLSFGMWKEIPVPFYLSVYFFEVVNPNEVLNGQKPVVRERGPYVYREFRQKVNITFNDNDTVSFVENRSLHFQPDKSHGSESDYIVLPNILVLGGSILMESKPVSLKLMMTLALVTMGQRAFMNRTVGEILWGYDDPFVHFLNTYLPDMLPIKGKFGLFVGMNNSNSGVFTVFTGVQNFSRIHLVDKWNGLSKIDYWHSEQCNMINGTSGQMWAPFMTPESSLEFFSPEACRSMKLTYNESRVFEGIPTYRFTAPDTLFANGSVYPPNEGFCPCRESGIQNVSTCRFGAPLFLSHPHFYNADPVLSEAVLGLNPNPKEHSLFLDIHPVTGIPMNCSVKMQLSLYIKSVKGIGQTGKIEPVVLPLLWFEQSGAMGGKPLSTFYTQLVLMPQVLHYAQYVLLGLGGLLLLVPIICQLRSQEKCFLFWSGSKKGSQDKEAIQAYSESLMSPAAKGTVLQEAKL
Source text: The cells were harvested and the lipids were organically extracted. The extracted lipids were spotted on thin-layer chromatography (TLC) plates and resolved within an organic vapor phase. The free cholesterol bands for each assay were isolated and counted in a scintillation counter.

cholesterol absorption = assay: Cholesterol absorption in mice, dual fecal isotope ratio method (cholesterol/sitostanol) (Example 24); type: in vivo, mouse; settings: chow diet
Protocol: Cholesterol absorption in the mice was determined by the dual fecal isotope ratio method as described by Altmann et al. (Biochim. Biophys. Acta. 1580(1):77–93 (2002)). […] Mice were gavaged with ^14C-cholesterol (1 μCi, 0.1 mg unlabeled cholesterol) and ^3H-sitostanol (2 μCi) in 0.1 ml corn oil. Feces were collected for 2 days and fecal ^14C-cholesterol and ^3H-sitostanol levels were determined by combustion in a Packard Oxidizer. The fraction of cholesterol absorbed, as evaluated by the fecal dual isotope technique, was similar in wild type (+/+) and heterozygous mice (+/−) fed a chow diet (heterozygous mice absorbed 46±5% and age matched wild type mice absorbed 51±3% of the dose of ^14C-cholesterol).

mouse SR-B1 = biological target: T2, mouse SR-B1 (Mus musculus, UniProt Q61009); assay: FACS analysis of BODIPY-labeled ezetimibe binding, mSRBI/CHO; settings: 100 nM BODIPY-labeled ezetimibe
T2 construct: expressed in transfected cells
T2 sequence (Q61009 1-509): T1 sequence (Q61009 1-509)
Protocol: (§1) “BODIPY” is a fluorescent group which was used to detect the BODIPY-ezetimibe. Chinese hamster ovary (CHO) cells were transiently transfected with rat NPC1L1 DNA (rNPC1L1/CHO), mouse NPC1L1 DNA (mNPC1L1/CHO), mouse SR-B1 DNA (mSRBI/CHO) or EGFP DNA (EGFP/CHO). EGFP is enhanced green fluorescent protein which was used as a positive control. […] Control experiments were also performed wherein the cells were not labeled with the BODIPY-ezetimibe and wherein untransfected CHO cells were labeled with the BODIPY-ezetimibe.

rat NPC1L1 = biological target: T3, rat NPC1L1 (Rattus norvegicus, UniProt Q6T3U3); assay: FACS analysis of BODIPY-labeled ezetimibe binding, rNPC1L1/CHO; settings: 100 nM BODIPY-labeled ezetimibe
T3 construct: using clone specific PCR primers to generate the ORF flanked by appropriate restriction sites; expressed in transfected cells
Protocol: as §1

mouse NPC1L1 = biological target: T4, mouse NPC1L1 (Mus musculus, UniProt Q6T3U4); assay: FACS analysis of BODIPY-labeled ezetimibe binding, mNPC1L1/CHO; settings: 100 nM BODIPY-labeled ezetimibe
T4 construct: using clone specific PCR primers to generate the ORF flanked by appropriate restriction sites; expressed in transfected cells
Protocol: as §1

untransfected CHO cells = assay: FACS analysis of BODIPY-labeled ezetimibe binding, untransfected CHO cells; set-up: species or system chinese hamster; settings: 100 nM BODIPY-labeled ezetimibe
Protocol: as §1

[3H]-cholesterol uptake (SR-B1) | Compound | fraction of cholesterol absorbed (of the dose of 14C-cholesterol) (cholesterol absorption; NPC1L1 knockout mice (−/−), ezetimibe 10 mg/kg/day) [%] | fraction of cholesterol absorbed (of the dose of 14C-cholesterol) (cholesterol absorption; wild type mice, ezetimibe 10 mg/kg daily) [%] | staining of cells (FACS) (mouse SR-B1) | staining of cells (FACS) (rat NPC1L1) | staining of cells (FACS) (mouse NPC1L1) | staining of cells (FACS) (untransfected CHO cells)
inhibited | O=C1[C@H](CC[C@H](O)c2ccc(F)cc2)[C@@H](c2ccc(O)cc2)N1c1ccc(F)cc1 [ezetimibe] | 16.2±0.6 | 16.1±0.3 |  |  |  | 
 | N-(4,4-difluoro-5.7-dimethyl-4-bora-3a.4a-diaza-s-indacene-3-vl)methyl iodoacetamide/ezetimibe [BODIPY-ezetimibe] |  |  | detected | No staining | No staining | No staining
